For 13 compounds, inhibition results are on record in patent US8318769B2, “Substituted sulfonamide compounds” (Gruenethal GmbH, priority 2008, dated 2012).

For orientation: inhibition means the change of the read-out against control, counted positive when it falls.

Test [1] concerns the target T1, human bradykinin 1 receptor (B1R) (Homo sapiens, UniProt P46663).
T1 construct: expressed in transfected cells
T1 sequence (P46663 1-353): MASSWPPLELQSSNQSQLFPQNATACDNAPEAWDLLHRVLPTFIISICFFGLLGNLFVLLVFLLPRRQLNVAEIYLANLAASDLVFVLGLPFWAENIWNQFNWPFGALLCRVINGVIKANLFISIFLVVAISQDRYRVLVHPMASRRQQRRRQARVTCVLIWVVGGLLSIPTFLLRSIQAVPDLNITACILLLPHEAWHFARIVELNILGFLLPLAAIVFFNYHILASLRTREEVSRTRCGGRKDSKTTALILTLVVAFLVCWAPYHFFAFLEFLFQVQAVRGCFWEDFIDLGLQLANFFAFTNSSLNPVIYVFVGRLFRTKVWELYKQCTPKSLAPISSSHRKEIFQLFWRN
The test can be described thus: FLIPR Ca2+ assay, B1R antagonism, human. Type of test: cell-based. The note with it: 10 μM test substance; CHO K1 cells with human B1R gene (hB1R cells); Lys-Des-Arg9-bradykinin at EC80; % inhibition compared with the maximum achievable inhibition; read-out: B1R antagonism, human [10 μM] % inhibition. The procedure:
The agonistic or antagonistic action of substances can be quantified on the bradykinin 1 receptor (B1R) of the human and rat species with ectopically expressing cell lines (CHO K1 cells) and with the aid of a Ca^2+-sensitive dyestuff (Fluo-4) in a fluorescent imaging plate reader (FLIPR). The figure in % activation is based on the Ca^2+ signal after addition of Lys-Des-Arg^9-bradykinin (0.5 nM) or Des-Arg^9-bradykinin (100 nM). Antagonists lead to a suppression of the Ca^2+ inflow after addition of the agonist. % inhibition compared with the maximum achievable inhibition is stated.
The agonistic or antagonistic action of substances can be determined on the bradykinin 1 receptor (B1R) of the human and rat species with the following assay. In accordance with this assay, the Ca^2+ inflow through the channel is quantified with the aid of a Ca^2+-sensitive dyestuff (type Fluo-4, Molecular Probes Europe BV, Leiden, Holland) in a fluorescent imaging plate reader (FLIPR, Molecular Devices, Sunnyvale, USA).
Chinese hamster ovary cells (CHO K1 cells) transfected stably with the human B1R gene (hB1R cells) or the B1R gene of the rat (rB1R cells) are used. For functional studies, these cells are plated out on black 96-well plates with a clear base (BD Biosciences, Heidelberg, Germany or Greiner, Frickenhausen, Germany) in a density of 20,000-35,000 cells/well. The cells are left overnight at 37° C. and 5% CO2 in culture medium (hB1R cells: Nutrient Mixture Ham's F12, Gibco Invitrogen GmbH, Karlsruhe, Germany or DMEM, Sigma-Aldrich, Taufkirchen, Germany; rB1R cells: D-MEM/F12, Gibco Invitrogen GmbH, Karlsruhe, Germany) with 10 vol. % FBS (foetal bovine serum, Gibco Invitrogen GmbH, Karlsruhe, Germany or PAN Biotech GmbH, Aidenbach, Germany).
On the following day, the cells are loaded for 60 min at 37° C. with 2.13 μM Fluo-4 (Molecular Probes Europe BV, Leiden, Holland) in HBSS buffer (Hank's buffered saline solution, Gibco Invitrogen GmbH, Karlsruhe, Germany) with 2.5 mM probenecid (Sigma-Aldrich, Taufkirchen, Germany) and 10 mM HEPES (Sigma-Aldrich, Taufkirchen, Germany). The plates are then washed 2× with HBSS buffer, and HBSS buffer which additionally contains 0.1% BSA (bovine serum albumin; Sigma-Aldrich, Taufkirchen, Germany), 5.6 mM glucose and 0.05% gelatine (Merck KGaA, Darmstadt, Germany) is added. After a further incubation of 20 minutes at room temperature, the plates are inserted into the FLIPR for the Ca^2+ measurement.
Alternatively, the plates are washed with buffer A (15 mM HEPES, 80 mM NaCl, 5 mM KCl, 1.2 mM CaCl2, 0.7 mM MgSO4, 2 g/l glucose, 2.5 mM probenecid), buffer A is added and the plates are loaded with 2.5 μM Fluo-4 and 0.025% Pluronic F127 (Sigma-Aldrich, Taufkirchen, Germany). Thereafter, the cells are washed 2× with buffer A and incubated for 30 minutes with buffer A, which additionally contains 0.05% BSA and 0.05% gelatine, at room temperature and thereafter inserted into the FLIPR for the Ca^2+ measurement.
The Ca^2+-dependent fluorescence is measured here before and after addition of substances (λex=488 nm, λem=540 nm). Quantification is by measurement of the highest fluorescence intensity (FC, fluorescence counts) over time.
The FLIPR protocol consists of 2 additions of substance. Test substances (10 μM) are first pipetted on to the cells and the Ca^2+ inflow is compared with the control (hB1R: Lys-Des-Arg^9-bradykinin >=50 nM; rB1R: Des-Arg^9-bradykinin 10 μM). This gives the figure in % activation based on the Ca^2+ signal after addition of Lys-Des-Arg^9-bradykinin (>=50 nM) or Des-Arg^9-bradykinin (10 μM).
After incubation for 10-20 minutes, Lys-Des-Arg^9-bradykinin (hB1R) or Des-Arg^9-bradykinin (rB1R) in the concentration of the EC80 is applied and the inflow of Ca^2+ is likewise determined. Antagonists lead to a suppression of the Ca^2+ inflow. % inhibition compared with the maximum achievable inhibition is calculated. […]

For test [2], the target named is T2, bradykinin 1 receptor (B1R) of the rat (Rattus norvegicus, UniProt P97583).
T2 construct: expressed in transfected cells
T2 sequence (P97583 1-337): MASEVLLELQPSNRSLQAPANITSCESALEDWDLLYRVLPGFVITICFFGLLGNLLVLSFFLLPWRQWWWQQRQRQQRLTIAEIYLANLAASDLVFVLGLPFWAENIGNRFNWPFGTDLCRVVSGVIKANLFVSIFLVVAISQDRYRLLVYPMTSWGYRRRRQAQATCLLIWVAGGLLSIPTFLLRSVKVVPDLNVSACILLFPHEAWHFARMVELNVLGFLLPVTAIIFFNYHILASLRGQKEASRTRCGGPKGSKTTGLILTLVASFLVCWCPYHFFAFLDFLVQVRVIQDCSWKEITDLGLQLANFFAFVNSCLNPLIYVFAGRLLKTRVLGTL
Briefly: FLIPR Ca2+ assay, B1R antagonism, rat. The test is classed as cell-based. The note with it: CHO-K1, 10 μM test substance; CHO K1 cells with rat B1R gene (rB1R cells); Des-Arg9-bradykinin at EC80; % inhibition compared with the maximum achievable inhibition; read-out: B1R antagonism, rat [10 μM] % inhibition. The method, boiled down: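 CHO K1 cells stably expressing human or rat B1R, loaded with Fluo-4 and read in FLIPR (ex 488, em 540 nm, peak fluorescence). Test compound 10 μM preincubated 10-20 min, then EC80 agonist added (Lys-Des-Arg9-bradykinin for human, Des-Arg9-bradykinin for rat); % inhibition relative to maximum achievable inhibition.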

`COc1cc(C)c(S(=O)(=O)N2CCCCC2COCC(=O)N2CCC(OCCN3CCCC3)(c3cccnc3)CC2)c(C)c1` (centres unmarked) [Example 20, 2-((1-(4-methoxy-2,6-dimethylphenylsulfonyl)piperidin-2-yl)methoxy)-1-(4-(pyridin-3-yl)-4-(2-(pyrrolidin-1-yl)ethoxy)piperidin-1-yl)ethanone]: the inhibition at 10 µM came to 104% in test [1] and 102% in test [2].

Take `COc1cc(C)c(S(=O)(=O)N(C)CCOCC(=O)N2CCC(OCCN3CCCC3)(c3cccnc3)CC2)c(C)c1` [Example 21, 4-methoxy-N,2,6-trimethyl-N-(2-(2-oxo-2-(4-(pyridin-3-yl)-4-(2-(pyrrolidin-1-yl)ethoxy)piperidin-1-yl)ethoxy)ethyl)benzenesulfonamide]: the results for the inhibition at 10 µM in test [1] and in test [2] were 98% and 100%, respectively.

As to `O=C(CC1CCCCN1S(=O)(=O)c1cccc(C(F)(F)F)c1)N1CCC(OCCN2CCCC2)(c2cccnc2)CC1` (centres unmarked) [Example 22, 1-(4-(pyridin-3-yl)-4-(2-(pyrrolidin-1-yl)ethoxy)piperidin-1-yl)-2-(1-(3-(trifluoromethyl)phenylsulfonyl)piperidin-2-yl)ethanone], the inhibition at 10 µM in test [1] amounted to 39%; in test [2] it was 102%.

Turning to `O=C(CC1CCCCN1S(=O)(=O)c1cccc(C(F)(F)F)c1)N1CCC(OCCCN2CCCCC2)(c2cccnc2)CC1` (centres unmarked) [Example 23, 1-(4-(3-(piperidin-1-yl)propoxy)-4-(pyridin-3-yl)piperidin-1-yl)-2-(1-(3-(trifluoromethyl)phenylsulfonyl)piperidin-2-yl)ethanone], the figures for the inhibition at 10 µM in test [1] and in test [2] were 57% and 46%, respectively.

With `O=C(COCC1CCc2ccccc2N1S(=O)(=O)c1ccc(Cl)c(Cl)c1)N1CCC(OCCN2CCCC2)(c2cccnc2)CC1` (centres unmarked) [Example 24, 2-((1-(3,4-dichlorophenylsulfonyl)-1,2,3,4-tetrahydroquinolin-2-yl)methoxy)-1-(4-(pyridin-3-yl)-4-(2-(pyrrolidin-1-yl)ethoxy)piperidin-1-yl)ethanone], the inhibition at 10 µM in test [1] is 69%; in test [2], 101%.

Regarding `Cc1cc(S(=O)(=O)N2CCCCC2CCC(=O)N2CCC(OCCN3CCCC3)(c3cccnc3)CC2)c(C)cc1Cl` (centres unmarked) [Example 25, 3-(1-(4-chloro-2,5-dimethylphenylsulfonyl)piperidin-2-yl)-1-(4-(pyridin-3-yl)-4-(2-(pyrrolidin-1-yl)ethoxy)piperidin-1-yl)propan-1-one], the inhibition at 10 µM worked out at 86% in test [1] and 72% in test [2].

On to `O=C(CC(NS(=O)(=O)c1ccc2ccccc2c1)c1ccccc1)N1CCC(OCCN2CCCC2)(c2cccnc2)CC1` (centres unmarked) [Example 26, N-(3-oxo-1-phenyl-3-(4-(pyridin-3-yl)-4-(2-(pyrrolidin-1-yl)ethoxy)piperidin-1-yl)propyl)naphthalene-2-sulfonamide], for which the inhibition at 10 µM amounted to 87% in test [1] and 91% in test [2].

Turning to `O=C(CC(NS(=O)(=O)c1ccc2ccccc2c1)c1ccccc1)N1CCC(OCCCN2CCCCC2)(c2cccnc2)CC1` (centres unmarked) [Example 27, N-(3-oxo-1-phenyl-3-(4-(3-(piperidin-1-yl)propoxy)-4-(pyridin-3-yl)piperidin-1-yl)propyl)naphthalene-2-sulfonamide], the inhibition at 10 µM in test [1] stood at 83%; in test [2], 101%.

`COc1cc(C)c(S(=O)(=O)N2CCCCC2COCC(=O)N2CCC(OCCN3CCN(C)CC3)(c3cccnc3)CC2)c(C)c1` (centres unmarked) [Example 28, 2-((1-(4-methoxy-2,6-dimethylphenylsulfonyl)piperidin-2-yl)methoxy)-1-(4-(2-(4-methylpiperazin-1-yl)ethoxy)-4-(pyridin-3-yl)piperidin-1-yl)ethanone]: the inhibition at 10 µM in test [1] worked out at 97%; in test [2] it was 102%.

Take `COc1cc(C)c(S(=O)(=O)N(C)CCOCC(=O)N2CCC(OCCN3CCN(C)CC3)(c3cccnc3)CC2)c(C)c1` [Example 29, 4-methoxy-N,2,6-trimethyl-N-(2-(2-(4-(2-(4-methylpiperazin-1-yl)ethoxy)-4-(pyridin-3-yl)piperidin-1-yl)-2-oxoethoxy)ethyl)benzenesulfonamide]: the inhibition at 10 µM in test [1] came to 99%; in test [2], 101%.

For the compound `CN1CCN(CCOC2(c3cccnc3)CCN(C(=O)CC3CCCCN3S(=O)(=O)c3cccc(C(F)(F)F)c3)CC2)CC1` (centres unmarked) [Example 30, 1-(4-(2-(4-methylpiperazin-1-yl)ethoxy)-4-(pyridin-3-yl)piperidin-1-yl)-2-(1-(3-(trifluoromethyl)phenylsulfonyl)piperidin-2-yl)ethanone], the inhibition at 10 µM in test [1] came out at 31%; in test [2], 18%.

On to `Cc1cc(S(=O)(=O)N2CCCCC2CCC(=O)N2CCC(OCCN3CCN(C)CC3)(c3cccnc3)CC2)c(C)cc1Cl` (centres unmarked) [Example 31, 3-(1-(4-chloro-2,5-dimethylphenylsulfonyl)piperidin-2-yl)-1-(4-(2-(4-methylpiperazin-1-yl)ethoxy)-4-(pyridin-3-yl)piperidin-1-yl)propan-1-one], for which the inhibition at 10 µM in test [1] was 85%; in test [2], 61%.

For `CN1CCN(CCOC2(c3cccnc3)CCN(C(=O)CC(NS(=O)(=O)c3ccc4ccccc4c3)c3ccccc3)CC2)CC1` (centres unmarked) [Example 32, N-(3-(4-(2-(4-methylpiperazin-1-yl)ethoxy)-4-(pyridin-3-yl)piperidin-1-yl)-3-oxo-1-phenylpropyl)naphthalene-2-sulfonamide], the figures for the inhibition at 10 µM in test [1] and in test [2] were 63% and 98%, respectively.
